Experimental data reported in paper PMC9146377, “Design and Synthesis of Novel Bis-Imidazolyl Phenyl Butadiyne Derivatives as HCV NS5A Inhibitors” (Pharmaceuticals, 2022).
Read-outs that look alike come from different tables or passages of the source.

Legend:
[1] = Cytotoxicity assay (intracellular ATP levels) in Huh5-2 replicon cells; format: cell-based; settings: human, Huh5-2 cells, read-out: HCV Replicon 1b CC50
Protocol: (§1) All synthesized compounds were tested against HCV genotype 1b Con-1 subgenomic replicon in the Huh-5-2 stable cell line. Specifically, their activity against viral replication was estimated by measuring firefly luciferase, which is co-expressed by the bicistronic replicon, and their half-maximal effective concentrations (EC50) were determined. In parallel, the half-maximal cytotoxic concentrations (CC50) of the compounds were estimated, and their selective indexes (SI50: CC50/ EC50) were calculated. All novel synthesized compounds were active against HCV 1b with EC50 < 1 µM except for compound 4b (Table 3).
Intracellular ATP levels were measured to determine the cytotoxicity of the compounds in the treated cells. In 96-well plates, 10^4 cells per well were seeded, incubated with serial dilutions of the compounds or DMSO as a control for 72 h at 37 °C (5% CO2) and lysed for ATP measurement. ATP levels were measured using the ViaLight HS BioAssay kit (Lonza, Basel, Switzerland) in a GloMax 20/20 single-tube luminometer (Promega) for 1 s, according to the manufacturer’s protocol. Values were normalized to total protein amounts and used to determine the compound concentration causing 50% cell death (CC50). Nonlinear regression analysis was performed using Prism 5.0 software (GraphPad Software Inc., San Diego, CA, USA).

[2] = test system: HCV genotype 1b Con-1 subgenomic replicon; test: Anti-HCV luciferase assay, genotype 1b (Con1) subgenomic replicon in Huh5-2 cells; format: cell-based, Hepatitis C virus; settings: for HCV Replicon 1b SI50: CC50/EC50, Huh5-2 cells
Protocol: as §1
Huh5-2 [65] and Huh7-JFH1 [66] stable cell lines harbor the subgenomic HCV reporter replicon I389luc-ubi-neo/NS3-3′/Con1/5.1 (genotype 1b; strain Con1) and I389luc-ubi-neo/NS3-3′_dg_JFH1 (genotype 2a, JFH1 strain), respectively (kindly provided by R. Bartenschlager, Heidelberg University, Heidelberg, Germany). Huh7.5-3a and Huh7.5-4a stable cell lines harbor the subgenomic HCV reporter replicon S52-SG (Feo) (AII) (genotype 3a; S52 strain) and ED43-SG (Feo) (VYG) (genotype 4a; ED43 strain), respectively (viral constructs kindly provided by C.M. Rice, Rockefeller University, New York, NY, USA). These replicons carry as a first cistron firefly luciferase (F-Luc) and neomycin phosphotransferase genes under the translational control of the HCV internal ribosome entry site (IRES), followed by HCV NS3 to NS5B proteins under the control of the EMCV IRES.
The anti-HCV assay in replicon cells was performed by seeding 1 × 10^4 cells per well in a 96-well plate. After 24 h of incubation at 37 °C (5% CO2) and medium removal, serial dilutions of the test compounds in complete DMEM were added. Cells were lysed after 72 h, and F-Luc activity was measured. The anti-HCV assay for the full-length viral construct H77S.3/GLuc2A was performed after electroporation of Huh7-Lunet cells with viral RNA. Cells were seeded in 96-well plates, the medium was removed 24 h after electroporation, and serial dilutions of the compounds in complete DMEM were added. At 72 h post-treatment, cell supernatants were collected, and G-Luc activity was measured. In addition, the cells were lysed for total protein quantification.
Relative luminescence units (RLU) were expressed as a percentage of the respective units derived from DMSO-treated cells (control). The half-maximal effective concentration (EC50), defined as the concentration of compound that reduces luciferase signal by 50%, was calculated by dose-response curve analysis using Prism 5.0 software (GraphPad Software Inc., San Diego, CA, USA).
The F-Luc activity was measured using the Luciferase Assay System (Promega, Madison, WI, USA), as recommended by the manufacturer. The G-Luc activity was measured using 12 μM coelenterazine (Promega) in assay buffer (50 mM potassium phosphate, pH 7.4, 500 mM NaCl, 1 mM EDTA). Measurements were carried out using a GloMax 20/20 single tube luminometer (Promega) for 10 s. The F-Luc activity was normalized to the total protein amount determined using the Bradford assay reagent (Pierce, Waltham, MA, USA).

[3] = Hepatitis C virus, Huh-5-2, 72 h, Huh5-2 cells, Con1 strain, F-Luc, 72 h, mean of three experiments, read-out: HCV Replicon 1b EC50
[4] = Huh5-2 cells, Con1 strain, F-Luc, 72 h, mean of three experiments, read-out: HCV Replicon 1b EC50
[5] = Hepatitis C virus, Huh-5-2, 72 h, read-out: HCV Replicon 1b EC50, Huh5-2 cells, Con1 strain, F-Luc, 72 h, mean of three experiments

COC(=O)N[C@@H](CC(C)C)C(=O)N1CCC[C@H]1c1ncc(-c2ccc(C#CC#Cc3ccc(-c4cnc([C@@H]5CCCN5C(=O)[C@H](CC(C)C)NC(=O)OC)[nH]4)cc3)cc2)[nH]1 [Compound 5b, Dimethyl ((2S,2′S)-((2S,2′S)-((buta-1,3-diyne-1,4-diylbis(4,1-phenylene))bis(1H-imidazole-5,2-diyl))bis(pyrrolidine-2,1-diyl))bis(4-methyl-1-oxopentane-1,2-diyl))dicarbamate]
CC50 at 72 h [1]: > 100 µM | HCV Replicon 1b SI50 [2]: >6203.47 | EC50 [2, 3]: 16.1 nM | EC50 [2, 4]: 16.1 nM | melting point: 124 to 126 °C

COC(=O)N[C@H](CC(C)C)C(=O)N1CCC[C@H]1c1ncc(-c2cccc(C#CC#Cc3cccc(-c4cnc([C@@H]5CCCN5C(=O)[C@@H](CC(C)C)NC(=O)OC)[nH]4)c3)c2)[nH]1 [Compound 6a, Dimethyl ((2R,2′R)-((2S,2′S)-((buta-1,3-diyne-1,4-diylbis(3,1-phenylene))bis(1H-imidazole-5,2-diyl))bis(pyrrolidine-2,1-diyl))bis(4-methyl-1-oxopentane-1,2-diyl))dicarbamate]
CC50 at 72 h [1]: > 100 µM | HCV Replicon 1b SI50 [2]: >1034.23 | EC50 [2, 5]: 96.6 nM | EC50 [2, 4]: 96.7 nM | melting point: 111 to 113 °C

COC(=O)N[C@H](CC(C)C)C(=O)N1CCC[C@H]1c1ncc(-c2ccc(C#CC#Cc3ccc(-c4cnc([C@@H]5CCCN5C(=O)[C@@H](CC(C)C)NC(=O)OC)[nH]4)cc3)cc2)[nH]1 [Compound 6b, Dimethyl ((2R,2′R)-((2S,2′S)-((buta-1,3-diyne-1,4-diylbis(4,1-phenylene))bis(1H-imidazole-5,2-diyl))bis(pyrrolidine-2,1-diyl))bis(4-methyl-1-oxopentane-1,2-diyl))dicarbamate]
CC50 at 72 h [1]: > 100 µM | HCV Replicon 1b SI50 [2]: >1512.63 | EC50 [2, 5]: 42.1 nM | EC50 ([2]; Hepatitis C virus, Huh-5-2, Table S1, in vitro result versus genotype 1b, read-out: NS5A EC50): 66.1 nM | melting point: 129 to 131 °C

CCOC(=O)N[C@@H](CC(C)C)C(=O)N1CCC[C@H]1c1ncc(-c2ccc(C#CC#Cc3ccc(-c4cnc([C@@H]5CCCN5C(=O)[C@H](CC(C)C)NC(=O)OCC)[nH]4)cc3)cc2)[nH]1 [Compound 7b, Diethyl ((2S,2′S)-((2S,2′S)-((buta-1,3-diyne-1,4-diylbis(4,1-phenylene))bis(1H-imidazole-5,2-diyl))bis(pyrrolidine-2,1-diyl))bis(4-methyl-1-oxopentane-1,2-diyl))dicarbamate]
CC50 at 72 h [1]: > 100 µM | HCV Replicon 1b SI50 [2]: >1699.23 | EC50 [2, 3]: 58.9 nM | melting point: 118 to 120 °C

CCOC(=O)N[C@H](CC(C)C)C(=O)N1CCC[C@H]1c1ncc(-c2cccc(C#CC#Cc3cccc(-c4cnc([C@@H]5CCCN5C(=O)[C@@H](CC(C)C)NC(=O)OCC)[nH]4)c3)c2)[nH]1 [Compound 8a, Diethyl ((2R,2′R)-((2S,2′S)-((buta-1,3-diyne-1,4-diylbis(3,1-phenylene))bis(1H-imidazole-5,2-diyl))bis(pyrrolidine-2,1-diyl))bis(4-methyl-1-oxopentane-1,2-diyl))dicarbamate]
CC50 at 72 h [1]: > 100 µM | HCV Replicon 1b SI50 [2]: >1170.82 | EC50 [2, 5]: 85.4 nM | EC50 [2, 4]: 85.4 nM | melting point: 109 to 111 °C

CCOC(=O)N[C@H](CC(C)C)C(=O)N1CCC[C@H]1c1ncc(-c2ccc(C#CC#Cc3ccc(-c4cnc([C@@H]5CCCN5C(=O)[C@@H](CC(C)C)NC(=O)OCC)[nH]4)cc3)cc2)[nH]1 [Compound 8b, Diethyl ((2R,2′R)-((2S,2′S)-((buta-1,3-diyne-1,4-diylbis(4,1-phenylene))bis(1H-imidazole-5,2-diyl))bis(pyrrolidine-2,1-diyl))bis(4-methyl-1-oxopentane-1,2-diyl))dicarbamate]
CC50 at 72 h [1]: > 100 µM | HCV Replicon 1b SI50 [2]: >1289.98 | EC50 [2, 3]: 77.5 nM | melting point: 129 to 132 °C

COC(=O)N[C@H](C(=O)N1CCC[C@H]1c1ncc(-c2cccc(C#CC#Cc3cccc(-c4cnc([C@@H]5CCCN5C(=O)[C@@H](NC(=O)OC)c5ccccc5)[nH]4)c3)c2)[nH]1)c1ccccc1 [Compound 9a, Dimethyl ((1S,1′S)-((2S,2′S)-((buta-1,3-diyne-1,4-diylbis(3,1-phenylene))bis(1H-imidazole-5,2-diyl))bis(pyrrolidine-2,1-diyl))bis(2-oxo-1-phenylethane-2,1-diyl))dicarbamate]
CC50 at 72 h [1]: > 100 µM | HCV Replicon 1b SI50 [2]: >1611.86 | EC50 [2, 5]: 62 nM | EC50 [2, 4]: 62 nM | melting point: 125 to 127 °C

COC(=O)N[C@@H](C(=O)N1CCC[C@H]1c1ncc(-c2ccc(C#CC#Cc3ccc(-c4cnc([C@@H]5CCCN5C(=O)[C@H](NC(=O)OC)c5ccccc5)[nH]4)cc3)cc2)[nH]1)c1ccccc1 [Compound 10b, Dimethyl ((1R,1′R)-((2S,2′S)-((buta-1,3-diyne-1,4-diylbis(4,1-phenylene))bis(1H-imidazole-5,2-diyl))bis(pyrrolidine-2,1-diyl))bis(2-oxo-1-phenylethane-2,1-diyl))dicarbamate]
CC50 at 72 h [1]: > 100 µM | HCV Replicon 1b SI50 [2]: >1180.77 | EC50 [2, 3]: 84.7 nM | melting point: 125 to 127 °C
